The record followed here is ChEMBL document CHEMBL1130909, “General construction pattern of histamine H3-receptor antagonists: change of a paradigm” (Bioorg Med Chem Lett, 1998).

The experiment concerns the target Histamine H3 receptor (Rattus norvegicus, UniProt Q9QYN8). The experiment is described as follows: In vitro Histamine H3 receptor antagonist activity in an assay with K+-evoked depolarization-induced release of [3H]histamine from synaptosomes of rat cerebral cortex. It counts as functional, subcellular, Brain.

pKi: −log10 of the molar value. Some results are limits rather than exact numbers.

Chain of Histamine H3 receptor (Q9QYN8 whole entry): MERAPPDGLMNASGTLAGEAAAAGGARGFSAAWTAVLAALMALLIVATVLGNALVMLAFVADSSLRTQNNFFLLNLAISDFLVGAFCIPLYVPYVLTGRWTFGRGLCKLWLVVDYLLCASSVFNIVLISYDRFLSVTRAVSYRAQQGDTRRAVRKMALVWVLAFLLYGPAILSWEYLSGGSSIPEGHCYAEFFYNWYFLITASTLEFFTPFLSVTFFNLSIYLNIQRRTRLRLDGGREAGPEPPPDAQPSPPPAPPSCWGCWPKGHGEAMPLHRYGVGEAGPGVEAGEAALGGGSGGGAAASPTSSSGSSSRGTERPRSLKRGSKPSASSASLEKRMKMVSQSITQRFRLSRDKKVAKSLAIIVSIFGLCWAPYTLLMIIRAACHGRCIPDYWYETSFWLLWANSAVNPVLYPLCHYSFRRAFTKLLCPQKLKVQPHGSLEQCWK

In the case of `C(=C\CCc1c[nH]cn1)/CCc1ccccc1`, the pKi – broadly, the Ki on a negative log10 scale, so that one unit is a factor of ten – was 7.38.
With `CCCCCCCCCc1c[nH]cn1` the figure was 6.40; with `CCCCCCC/C=C\c1c[nH]cn1`, under 6.30.
